Laboratory results: patent EP4477653A1 (Perha Pharmaceuticals, priority 2023, dated 2024)

Biological target: T1, human recombinant A3AR (expressed in HEK-293 cells) (Homo sapiens, UniProt P0DMS8)
T1 construct: host or cells: HEK-293 cells
T1 sequence (P0DMS8 1-318): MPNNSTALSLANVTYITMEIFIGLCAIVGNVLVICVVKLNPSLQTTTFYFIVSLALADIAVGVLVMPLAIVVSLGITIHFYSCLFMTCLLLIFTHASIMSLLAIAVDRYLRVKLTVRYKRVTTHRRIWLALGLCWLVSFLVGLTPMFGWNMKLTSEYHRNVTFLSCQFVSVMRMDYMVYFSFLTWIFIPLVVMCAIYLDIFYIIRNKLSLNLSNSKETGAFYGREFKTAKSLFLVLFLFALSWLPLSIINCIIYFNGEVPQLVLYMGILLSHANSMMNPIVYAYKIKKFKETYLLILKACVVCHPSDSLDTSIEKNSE
Experiment: Adenosine receptors antagonism assay (Eurofins), [125I]-AB-MECA radioligand competition
Format: binding
Details: [125I]-AB-MECA 0.15 nM, r.t., 120 min; IC50 from dose-response curves; read-out: Potency Class A3AR

In the case of `CCC(CC)Nc1cc(N2Cc3ccccc3C2)c2nnc(C(C)C)n2n1` [compound 79, N-(1-ethylpropyl)-8-isoindolin-2-yl-3-isopropyl-[1,2,4]triazolo[4,3-b]pyridazin-6-amine], the IC50 is reported as 100 to 1000 nM.

`CCC(CC)Nc1cc(N2CCc3ccccc3C2)c2nnc(C(C)C)n2n1` [compound 80, 8-(3,4-dihydro-1H-isoquinolin-2-yl)-N-(1-ethylpropyl)-3-isopropyl-[1,2,4]triazolo[4,3-b]pyridazin-6-amine] was tested, and the IC50 was 1 to 10 nM.

Molecule `CCC(CC)Nc1cc(NCCc2ccccc2)c2nnc(C(C)C)n2n1` [compound 82, N6-(1-ethylpropyl)-3-isopropyl-N8-(2-phenylethyl)-[1,2,4]triazolo[4,3-b]pyridazine-6,8-diamine] has an IC50 of 1 to 10 nM.

With `CCC(CC)Nc1cc(NCCc2ccccn2)c2nnc(C(C)C)n2n1` [compound 83, N6-(1-ethylpropyl)-3-isopropyl-N8-[2-(2-pyridyl)ethyl]-[1,2,4]triazolo[4,3-b]pyridazine-6,8-diamine] the IC50 was under 1 nM.

`CCC(CC)Nc1cc(NCCc2cccnc2)c2nnc(C(C)C)n2n1` [compound 84, N6-(1-ethylpropyl)-3-isopropyl-N8-[2-(3-pyridyl)ethyl]-[1,2,4]triazolo[4,3-b]pyridazine-6,8-diamine] gave an IC50 of 1 to 10 nM.

Work on `CCC(CC)Nc1cc(NCCc2ccncc2)c2nnc(C(C)C)n2n1` [compound 85, N6-(1-ethylpropyl)-3-isopropyl-N8-[2-(4-pyridyl)ethyl]-[1,2,4]triazolo[4,3-b]pyridazine-6,8-diamine] yielded an IC50 of 1 to 10 nM.

`CCC(CC)Nc1cc(NCCc2ccccn2)c2nnc(C3CC3)n2n1` [compound 86, 3-cyclopropyl-N6-(1-ethylpropyl)-N8-[2-(2-pyridyl)ethyl]-[1,2,4]triazolo[4,3-b]pyridazine-6,8-diamine] gave an IC50 of under 1 nM.

Work on `CCC(CC)Nc1cc(NCCc2cccnc2)c2nnc(C3CC3)n2n1` [compound 87, 3-cyclopropyl-N6-(1-ethylpropyl)-N8-[2-(3-pyridyl)ethyl]-[1,2,4]triazolo[4,3-b]pyridazine-6,8-diamine] yielded an IC50 of under 1 nM.

`CCC(CC)Nc1cc(NCCc2ccncc2)c2nnc(C3CC3)n2n1` [compound 88, 3-cyclopropyl-N6-(1-ethylpropyl)-N8-[2-(4-pyridyl)ethyl]-[1,2,4]triazolo[4,3-b]pyridazine-6,8-diamine] was tested, and the IC50 was 1 to 10 nM.

For `CCC(CC)Nc1cc(NCCCc2ccccn2)c2nnc(C(C)C)n2n1` [compound 89, N6-(1-ethylpropyl)-3-isopropyl-N8-[3-(2-pyridyl)propyl]-[1,2,4]triazolo[4,3-b]pyridazine-6,8-diamine], the IC50 was 10 to 100 nM.

With `CCC(CC)Nc1cc(NCCCc2cccnc2)c2nnc(C(C)C)n2n1` [compound 90, N6-(1-ethylpropyl)-3-isopropyl-N8-[3-(3-pyridyl)propyl]-[1,2,4]triazolo[4,3-b]pyridazine-6,8-diamine] the IC50 was 1 to 10 nM.

Work on `CCC(CC)Nc1cc(NCCCc2ccncc2)c2nnc(C(C)C)n2n1` [compound 91, N6-(1-ethylpropyl)-3-isopropyl-N8-[3-(4-pyridyl)propyl]-[1,2,4]triazolo[4,3-b]pyridazine-6,8-diamine] yielded an IC50 of 1 to 10 nM.

`CCC(CC)Nc1cc(NCc2ncccn2)c2nnc(C(C)C)n2n1` [compound 92, N6-(1-ethylpropyl)-3-isopropyl-N8-(pyrimidin-2-ylmethyl)-[1,2,4]triazolo[4,3-b]pyridazine-6,8-diamine] gave an IC50 of 10 to 100 nM.

`CCC(CC)Nc1cc(NCc2cncnc2)c2nnc(C(C)C)n2n1` [compound 93, N6-(1-ethylpropyl)-3-isopropyl-N8-(pyrimidin-5-ylmethyl)-[1,2,4]triazolo[4,3-b]pyridazine-6,8-diamine] showed an IC50 of 1 to 10 nM.

`CCC(CC)Nc1cc(NCc2cnccn2)c2nnc(C(C)C)n2n1` [compound 94, N6-(1-ethylpropyl)-3-isopropyl-N8-(pyrazin-2-ylmethyl)-[1,2,4]triazolo[4,3-b]pyridazine-6,8-diamine] gave an IC50 of 1 to 10 nM.

`CCC(CC)Nc1cc(NCc2cccnn2)c2nnc(C(C)C)n2n1` [compound 95, N6-(1-ethylpropyl)-3-isopropyl-N8-(pyridazin-3-ylmethyl)-[1,2,4]triazolo[4,3-b]pyridazine-6,8-diamine] gave an IC50 of 1 to 10 nM.

`CCC(CC)Nc1cc(NC(=O)c2ccccc2)c2nnc(C(C)C)n2n1` [compound 96, N-[6-(1-ethylpropylamino)-3-isopropyl-[1,2,4]triazolo[4,3-b]pyridazin-8-yl]benzamide] was tested, and the IC50 was 10 to 100 nM.

`CCC(CC)Nc1cc(NC(=O)c2ccccn2)c2nnc(C(C)C)n2n1` [compound 97, N-[6-(1-ethylpropylamino)-3-isopropyl-[1,2,4]triazolo[4,3-b]pyridazin-8-yl]pyridine-2-carboxamide] gave an IC50 of 10 to 100 nM.

In the case of `CCC(CC)Nc1cc(NC(=O)Cc2ccccc2)c2nnc(C(C)C)n2n1` [compound 98, N-[6-(1-ethylpropylamino)-3-isopropyl-[1,2,4]triazolo[4,3-b]pyridazin-8-yl]-2-phenyl-acetamide], the IC50 is reported as under 1 nM.

`CCOC(=O)Nc1cc(NC(CC)CC)nn2c(C(C)C)nnc12` [compound 99, ethyl N-[6-(1-ethylpropylamino)-3-isopropyl-[1.2.4]triazolo[4,3-b]pyridazin-8-yl]carbamate] showed an IC50 of 1 to 10 nM.

`CC[C@@H](CO)Nc1cc(NCc2ccc(Br)cc2)c2nnc(C(C)C)n2n1` [compound 101, (2S)-2-[[8-[(4-bromophenyl)methylamino]-3-isopropyl-[1,2,4]triazolo[4,3-b]pyridazin-6-yl]amino]butan-1-o1] showed an IC50 of 10 to 100 nM.

For `CC[C@@H](CO)Nc1cc(NCc2ccc(-c3ccccc3)cc2)c2nnc(C(C)C)n2n1` [compound 102, (2S)-2-[[3-isopropyl-8-[(4-phenylphenyl)methylamino]-[1,2,4]triazolo[4,3-b]pyridazin-6-yl]amino]butan-1-ol], the IC50 was 10 to 100 nM.

`CC[C@@H](CO)Nc1cc(NCc2ccc(-c3ccncc3)cc2)c2nnc(C(C)C)n2n1` [compound 103, (2S)-2-[[3-isopropyl-8-[[4-(4-pyridyl)phenyl]methylamino]-[1,2,4]triazolo[4,3-b]pyridazin-6-yl]amino]butan-1-ol] was tested, and the IC50 was 10 to 100 nM.

With `CC[C@@H](CO)Nc1cc(NCc2ccc(-c3cccnc3)cc2)c2nnc(C(C)C)n2n1` [compound 104, (2S)-2-[[3-isopropyl-8-[[4-(3-pyridyl)phenyl]methylamino]-[1,2,4]triazolo[4,3-b]pyridazin-6-yl]amino]butan-1-ol] the IC50 was 10 to 100 nM.

Work on `CC[C@@H](CO)Nc1cc(NCc2ccc(-c3ccccn3)cc2)c2nnc(C(C)C)n2n1` [compound 105, (2S)-2-[[3-isopropyl-8-[[4-(2-pyridyl)phenyl]methylamino]-[1,2,4]triazolo[4,3-b]pyridazin-6-yl]amino]butan-1-ol] yielded an IC50 of 10 to 100 nM.

Molecule `CC(C)c1nnc2c(NCc3ccc(Br)cc3)cc(N[C@H](CO)[C@@H](C)O)nn12` [compound 106, (2R,3R)-2-[[8-[(4-bromophenyl)methylamino]-3-isopropyl-[1,2,4]triazolo[4,3-b]pyridazin-6-yl]amino]butane-1,3-diol] has an IC50 of 100 to 1000 nM.

With `CC(C)c1nnc2c(NCc3ccc(-c4ccccn4)cc3)cc(N[C@H](CO)[C@@H](C)O)nn12` [compound 107, (2R,3R)-2-[[3-isopropyl-8-[[4-(2-pyridyl)phenyl]methylamino]-[1,2,4]triazolo[4,3-b]pyridazin-6-yl]amino]butane-1,3-diol] the IC50 was 10 to 100 nM.
